Results from US20170304329A1 (THE UNIVERSITY OF KANSAS, priority 2014, published 2017).
Values joined by “and” are separate entries in the source; they are usually repeats but may differ in a detail not shown here. Equal values may be shown once. Where a name gives a salt, the structure may show the parent alone. Read-outs that look alike come from different tables or passages of the source. Blank lines part the entries; values can stand above or below the compound they belong to.

What was measured:
β-glucuronidase = test system: β-glucuronidase
Description: Based on human excretion data [Kellner et al, Arzneimittel-Forschung. 31 (8A):1337-1353], as well as evidence that bladder cancer patients have increased glucuronidase activity in urine [Paigen, K., Peterson, J., Paigen B. (1984) Role of urinary β-glucuronidase activity in human bladder cancer. Cancer Res 44:3620-3623], we conducted in vitro metabolism studies to characterize the stability of ciclopirox glucuronide in urine (at a concentration of 150 μM) obtained from bladder cancer patients compared to control urine collected from healthy volunteers.

T24 cells = test: Cell proliferation, hexosaminidase assay; assay type: cell-based, human
Description: (§1) To determine the effect of CPX on bladder cancer cell proliferation in T24 (MIBC) and 253-JBV (NMIBC) cells, 5,000 cells per well were seeded on to 96-well plates and grown overnight. The cells were then treated with increasing doses of CPX in RPMI media containing 10% FBS. Analysis of cell proliferation after the treatment period was estimated by the hexosaminidase assay. Briefly, the medium was removed and hexosaminidase substrate solution in citrate buffer pH 5 (7.5 mM), p-nitrophenol-N-acetyl-beta-D-glucosaminidase (Sigma Aldrich) was added at 75 μL per well. The plate was incubated at 37° C. in 100% humidity for 30 minutes. The reaction was stopped with 112.5 μL of 50 mM glycine containing 5 mM of EDTA (pH 10.4). The absorbance was measured at 405 nm. Experiments were conducted at n=6, and then repeated at least three times. The data were analyzed as percent of control, where the control wells were treated with equivalent amounts of DMSO alone. For IC50 calculations, a plot between the drug concentration and hexosaminidase activity was generated and the data was fitted either linearly or exponentially. The best fit was used for further processing of data.
(§2) We determined and compared the effect of CPX with CPX-POM and CPX-glucuronide in vitro by performing proliferation assay. To determine the effect of CPX, CPX-POM and CPX-glucuronide on bladder cancer cell proliferation in T24 (MIBC) and 253-JBV (NMIBC) cells, 5,000 cells per well were seeded on to 96-well plates and grown overnight. The cells were then treated with increasing doses of CPX, CPX-POM and CPX-glucuronide in RPMI media containing 10% FBS. Analysis of cell proliferation after the treatment period was estimated by the hexosaminidase assay. Briefly, the medium was removed and hexosaminidase substrate solution in citrate buffer pH 5 (7.5 mM), p-nitrophenol-N-acetyl-beta-D-glucosaminidase (Sigma Aldrich) was added at 75 μL per well. The plate was incubated at 37° C. in 100% humidity for 30 minutes. The reaction was stopped with 112.5 μL of 50 mM glycine containing 5 mM of EDTA (pH 10.4). The absorbance was measured at 405 nm.
(§3) Experiments were conducted at n=6, and then repeated at least three times. The data were analyzed as percent of control, where the control wells were treated with equivalent amounts of DMSO alone. For IC50 so calculations, a plot between the drug concentration and hexosaminidase activity was generated and the data was fitted either linearly or exponentially.

253JBV cells = test: Cell proliferation, hexosaminidase assay; assay type: cell-based, human
Description: as §1, §2, §3

[1] = Study 11428: plasma CPX pharmacokinetics after IV CPX-POM, SQ CPX-POM and oral CPX-O; assay type: in vivo, male Sprague-Dawley rats; details: rats; for AUC: plasma, po
Description: (§6) Intravenous CPX-POM was used as the reference in characterizing the bioavailability of ciclopirox following SQ ciclopirox-POM prodrug in this specie.

[2] = Study 208-02: plasma CPX pharmacokinetics after IV and oral CPX-O and CPX-POM; assay type: in vivo, male C57/Bl6 mice; details: mice
Text: Study 208-02. Bioavailability of Ciclopirox Following Oral and Intravenous Administration of Ciclopirox-POM Prodrug in the Mouse. […] The objectives of this study were to characterize the rate and extent of CPX-POM metabolism and assess the feasibility of orally administered ciclopirox-POM prodrug in support of future cancer proof of principle studies.

[3] = rats
[4] = dogs
[5] = humans; oral; cited from earlier work
[6] = cited from earlier work
[7] = Study 11429: plasma CPX pharmacokinetics after IV CPX-POM, SQ CPX-POM and oral CPX-O; assay type: in vivo, male beagle dogs; details: dogs; for AUC: plasma, po, 9 mg/kg
Description: as §6

Aqueous solubility = assay type: physicochemical
[8] = test system: proliferating cell nuclear antigen (PCNA) in T24 cells; test: Western blot of PCNA; assay type: cell-based, human
Text: CPX-POM inhibits proliferating cell nuclear antigen (PCNA) both in vitro and in vivo. […] Also, studies show a positive correlation between notch intracellular pathway and PCNA.

[9] = test system: BBN induced bladder tumors; test: BBN induced bladder tumor model; assay type: in vivo, mouse
Text: There were no significant differences in bladder weights between the two CPX-POM treatment groups. […] There is a strong correlation between CPX-POM treatment and tumor stage. […] Hematoxylin and Eosin stained bladder tissue sections of BBN alone group animals show a very high frequency of T3 stage tumors.

[10] = Study 10953: urine CPX pharmacokinetics after IV CPX-POM and CPX-O; assay type: in vivo, male beagle dogs; details: dogs; 3 mg/kg IV
Text: (§4) Study 10953. Bioavailability of Ciclopirox Following Intravenous Administration of Ciclopirox-POM Prodrug in the Dog. […] Given the low oral bioavailability of CPX observed in the mouse following administration of CPX-O and CPX-POM, this route of administration was not investigated in this study.

[11] = Study 10954: plasma CPX pharmacokinetics after IV CPX-POM and CPX-O; assay type: in vivo, male Sprague-Dawley rats; details: rats
Text: (§5) Study 10954. Bioavailability of Ciclopirox Following Intravenous Administration of Ciclopirox-POM Prodrug in the Rat. […] Given the low oral bioavailability of CPX observed in the mouse following administration of CPX-O and CPX-POM, this route of administration was not investigated in this study.

[12] = Study 11206: urine CPX and CPX-G pharmacokinetics after single and repeated IP CPX-POM; assay type: in vivo, male C57/Bl6 mice; details: mice; IP 50, 100, and 200 mg/kg
Description: Urine ciclopirox (CPX) pharmacokinetics were characterized in mice following single (Day 1) and repeat (Day 10) dose (once daily for ten consecutive days) administration of 50, 100, and 200 mg/kg ciclopirox-POM prodrug (CPX-POM) to three separate groups of six mice each, are summarized in Table 3B below. […] Following single and repeat dose IP administration of 50, 100, and 200 mg/kg CPX-POM, less than 1% of the dose was excreted as CPX over 24 hours. Despite the low percent dose recovery as ciclopirox, however, urine CPX concentrations exceeded the in vitro IC50 value of 2 μM by several-fold across the entire dose range.

[13] = mice
Description: The plasma and urine pharmacokinetics of ciclopirox (CPX) were characterized in the mouse following 10 mg/kg IV and 50 mg/kg IP administration of ciclopirox-POM prodrug (CPX-POM). […] In addition, we characterized the urinary excretion of CPX and ciclopirox glucuronide (CPX-G) to describe urinary tract exposure to CPX following IP administration of CPX-POM. Two treatment groups of 30 C57BL/6 mice each were treated with CPX-POM. Prior to and over six hours post-dose, three animals were sacrificed at each selected plasma sampling time point. Blood (plasma) was collected by cardiac puncture for bioanalysis. Plasma was pooled at each time point. In addition, two groups of six mice each were administered 10 mg/kg IV and 50 mg/kg IP CPX-POM to characterize urine pharmacokinetics. Mice were placed in metabolism cages with urine collected over 24 hours post-dose (0-8 hour and 8-24 hour urine collection intervals). As with plasma, urine samples collected from six animals were pooled for bioanalysis.

[14] = Study 10954: urine CPX and CPX-G pharmacokinetics after IV CPX-POM and CPX-O; assay type: in vivo, male Sprague-Dawley rats; details: rats; 10 mg/kg IV
Text: as §5

[15] = Series of pharmacokinetic studies (summary); details: following IV administration in mice, rats, and dogs
[16] = Study 10953: plasma CPX pharmacokinetics after IV CPX-POM and CPX-O; assay type: in vivo, male beagle dogs; details: dogs
Description: as §4
FIG. 14 illustrates the mean plasma CPX concentration-time profiles following administration of 3 mg/kg IV CPX-POM and CPX-O to four male beagle dogs.

[17] = 150 μM CPX-G, six-hour incubation, pooled urine from six NMIBC patients
[18] = male, Sprague-Dawley, rat, plasma CPX, single 30 mg/kg oral
[19] = male, C57/Bl6, mouse, plasma CPX, single 10 mg/kg IV
[20] = male, beagle, dog, plasma CPX, single 9 mg/kg oral

SMILES: Cc1cc(C2CCCCC2)n(O[C@H]2OC(C(=O)O)[C@H](O)C(O)C2O)c(=O)c1 (stereo partly shown) [CPX-G, ciclopirox glucuronide]
ciclopirox formed by hydrolysis (β-glucuronidase; [17]): 7.9 µM
formation rate (β-glucuronidase; [17]): 5%
extent of ciclopirox formation, patient urine vs healthy volunteer urine (β-glucuronidase; bladder cancer patient urine compared to healthy volunteers): approximately 11.6 fold
rate of β-glucuronidase-mediated hydrolysis, patient urine vs control urine (β-glucuronidase; pooled bladder cancer patient urine vs control urine): 5.6-11.5 fold
effect on cell proliferation (T24 cells; up to 72 h): did not show any significant effect
effect on cell proliferation (253JBV cells; up to 72 h): did not show any significant effect

AUC ([1]; male, Sprague-Dawley, rat, 30 mg/kg, plasma CPX, single 30 mg/kg oral, read-out: AUC0∫^n): 211 ± 84.5 ng·h/mL
AUC ([1]; male, Sprague-Dawley, rat, 30 mg/kg, plasma CPX, single 30 mg/kg oral, read-out: AUC0∫^∞): 378 ± 140 ng·h/mL
Cmax [1, 18]: 373 ± 158 ng/mL
Tmax [1, 18]: 15 ± 7.74 min
half-life [1, 18]: 48.1 ± 33.5 min
Kel ([1]; plasma CPX, single 30 mg/kg oral): 1.234 ± 0.742 h⁻¹
F ([1]; plasma CPX, single 30 mg/kg oral, reference IV CPX-POM, 30 mg/kg): 4.6% and 4.56%
C0 [2, 19]: 11300 ng/mL
MRT [2, 19]: 15.5 min
clearance [2, 19]: 108 mL/min/kg
Vd ([2]; male, C57/Bl6, mouse, plasma CPX, single 10 mg/kg IV, read-out: Vss): 1.68 L/kg
AUMC0∫^n ([2]; plasma CPX, single 10 mg/kg IV): 358 ng*hr^2/mL
AUMC0∫^∞ ([2]; plasma CPX, single 10 mg/kg IV): 401 ng*hr^2/mL
Vdz ([2]; plasma CPX, single 10 mg/kg IV): 5.7 L/kg
FeCPX ([3]; urine, single 30 mg/kg oral): 0.25 ± 0.18%
Xe/dtCPX 0-8 hr ([3]; urine, single 30 mg/kg oral): 0.63 ± 0.16 µg/h
Xe/dtCPX 8-24 hr ([3]; urine, single 30 mg/kg oral): 1.08 ± 1.11 µg/h
XeCPX 0-24 hr ([3]; urine, single 30 mg/kg oral): 22.30 ± 16.65 µg
UCPX 0-24 hr ([3]; urine, single 30 mg/kg oral, 30 mg/kg): 1,711 ± 1,427 ng/mL and 8.28 ± 6.89 μM
FeCPX ([4]; urine, single 9 mg/kg oral): 0.32 ± 0.21%
Xe/dtCPX 8-24 hr ([4]; urine, single 9 mg/kg oral): 2.90 ± 1.70 µg/h
XeCPX 0-24 hr ([4]; urine, single 9 mg/kg oral): 299 ± 208 µg
UCPX 0-24 hr ([4]; urine, single 9 mg/kg oral, 9 mg/kg): 1,602 ± 750^ ng/mL and 7.74 ± 3.62 μM
AUC ([7]; male, beagle, dog, plasma CPX, single 9 mg/kg oral, read-out: AUC0∫^n): 1900 ng·h/mL
AUC ([7]; male, beagle, dog, plasma CPX, single 9 mg/kg oral, read-out: AUC0∫^∞): 2700 ng·h/mL
Cmax [7, 20]: 1020 ng/mL
Tmax [7, 20]: 15 ± 7.74 min
half-life [7, 20]: 331 ± 23.4 min
Kel ([7]; plasma CPX, single 9 mg/kg oral): 0.126 ± 0.009 h⁻¹
SMILES: Cc1cc(C2CCCCC2)n(O)c(=O)c1 [CPX-O, ciclopirox olamine]
dose excreted in urine within 6 hours [5]: 87%
dose excreted in urine within 12 hours [5]: approximately 95%
dose in urine identified as ciclopirox [5]: 4%
dose in urine identified as ciclopirox and ciclopirox glucuronide [5]: 83%
dose in urine identified as ciclopirox glucuronide [5]: 79%
tolerability ([6]; 80 mg/m^2 oral, once daily): well tolerated
toxicity ([6]; oral, four times daily): dose-limiting gastrointestinal toxicity

SMILES: Cc1cc(C2CCCCC2)n(OCOP(=O)(O)O)c(=O)c1 [CPX-POM, phosphate disodium salt]
CPX-POM in blood or urine ([1]; 20 mg/kg IV and 30 mg/kg SQ): not detected in any blood or urine sample
aqueous solubility (Aqueous solubility): improve the aqueous solubility of ciclopirox
PCNA level [8]: time dependent decrease in the level of PCNA
tumor stage ([9]; H&E stained bladder tissue sections, vs BBN alone): significant reduction in the stage T3 frequency
Notch downstream target proteins ([9]; bladder tissue): significantly reduced the Notch downstream target proteins such as Cyclin D1 and c-Myc
Notch1 signaling and γ-secretase complex proteins in vivo ([9]; bladder tissue, both treatment groups): significantly reduced Notch1 activation
PCNA level in vivo ([9]; bladder tumor tissues): reduced the level of PCNA in vivo
bladder weights (measure of tumor volume) ([9]; four weeks once daily IP 100 mg/kg and 200 mg/kg, vs controls): significantly lower (p=0.013)
CPX-POM in urine [10]: not detected in any urine sample
prodrug in plasma ([2]; following oral and IV administration): not detected in plasma
CPX-POM in plasma ([11]; 10 mg/kg IV bolus): failed to detect CPX-POM in the majority of samples collected
Cmax relative to in vitro IC50 ([11]; 10 mg/kg IV, IC50 2 μM (414 ng/mL)): approximately twenty-fold greater than the IC50
tolerability ([3]; 20 mg/kg IV and 30 mg/kg SQ): well tolerated
tolerability ([4]; 3 mg/kg IV and 9 mg/kg SQ): well tolerated
CPX-POM in urine [12]: not detected in any urine samples
tolerability ([13]; 10 mg/kg IV and 50 mg/kg IP single doses): well tolerated
CPX Cmax relative to in vitro IC50 ([13]; 50 mg/kg IP, IC50 2 μM (414 ng/mL)): five-fold greater than the IC50
CPX-POM in plasma (BQL) ([13]; following either treatment (10 mg/kg IV, 50 mg/kg IP)): < 25 ng/mL
CPX-POM in urine [14]: not detected in any urine samples collected
prodrug in plasma and urine [15]: not detected in plasma nor urine
CPX-POM in plasma ([16]; 3 mg/kg IV bolus): not detected in the majority of plasma samples assayed
mean Cmax relative to in vitro IC50 ([16]; 3 mg/kg IV, IC50 2 μM (414 ng/mL)): approximately seven-fold greater than the IC50
IC50 (T24 cells; Homo sapiens, T-24, 48 h, 48 h): ≥ 45 µM
IC50 (253JBV cells; Homo sapiens, 48 h): 48 µM
CPX-POM in blood or urine ([7]; 3 mg/kg IV and 9 mg/kg SQ): not detected in any blood or urine sample
